Reference: patent publication US6699833B1, “Pharmaceutical formulations for sustained drug delivery” (Praecis Pharmaceuticals, Inc., priority 1996, dated 2004)
Where a SMILES comes first, the peptide text is derived from it. [ ]: non-standard residue; d: D form. dPhe(4-Cl) = N[C@H](Cc1ccc(Cl)cc1)C(=O)O; d2Nal = N[C@H](Cc1ccc2ccccc2c1)C(=O)O; Lys(iPr) = CC(C)NCCCC[C@H](N)C(=O)O; NMeY = CN[C@@H](Cc1ccc(O)cc1)C(=O)O; d3Pal = N[C@H](Cc1cccnc1)C(=O)O

Settings: rat, in vivo
Experimental: On day 30, the LHRH agonist Lupron™ (leuprolide) was injected into the rats. Plasma testosterone levels (in ng/ml; indicated by the open boxes in FIG. 2) were determined at various time points as a measure of the activity of the LHRH antagonist in the animal. Plasma levels of PPI-149 (in ng/ml) were also monitored in the animals (indicated by the closed boxes in FIG. 2).

day beyond which PPI-149 could not be detected in plasma: ~8 days
SMILES: CC(=O)N[C@H](Cc1ccc2ccccc2c1)C(=O)N[C@H](Cc1ccc(Cl)cc1)C(=O)N[C@H](Cc1cccnc1)C(=O)N[C@@H](CO)C(=O)N(C)[C@@H](Cc1ccc(O)cc1)C(=O)N[C@H](CC(N)=O)C(=O)N[C@@H](CC(C)C)C(=O)N[C@@H](CCCCNC(C)C)C(=O)N1CCC[C@H]1C(=O)N[C@H](C)C(N)=O [PPI-149, Ac-D-Nal^1,4-Cl-D-Phe^2, D-Pal^3, N-Me-Tyr^5, D-Asn^6, Lys(iPr)^8, D-Ala^10-LHRH] (Ac-[d2Nal][dPhe(4-Cl)][d3Pal]S[NMeY][dN]L[Lys(iPr)]P[dA]-NH2)
